Experimental data reported in patent US5162201A, “Analytical method making use of monoglyceride lipase” (priority 1987, dated 1992).

Experiments:
[1] = test system: monoglyceride lipase of this invention; test: Substrate specificity of the monoglyceride lipase; format: biochemical, Bacillus stearothermophilus H-165; conditions: named substance used as substrate
Protocol: (8) Substrate specificity: The substrate specificity of the monoglyceride lipase of this invention was investigated under conditions which followed the below-described measurement method of enzymatic activity for the monoglyceride lipase of this invention.
(§1) To 0.4 ml of a reaction solution of the above composition, 50 μl of 10 mM monolaurin (0.5% aqueous solution of "Triton X-100") was added. The resultant mixture was provisionally heated at 37° C. for 2-3 minutes and 50 μl of an enzyme solution was added to initiate a reaction. Exactly 10 minutes later, 2.5 ml of 0.5% SDS (sodium dodecyl suflate) was added to terminate the reaction. The absorbance was measured at a wavelength of 550 nm. Regarding the enzymatic activity, the activity capable of producing 1 μmole of glycerol per minute was defined as 1 Unit (1 U). The following equation will be followed upon calculation of enzymatic activity (potency) by this measurement method of enzymatic activity. [formula] ΔA 550: Absorbance at the wavelength of 500 nm 2.95: Total volume of reaction mixture (ml)

[2] = test system: monoglyceride lipase of this invention; test: Glycerol liberated from α,β-diglycerides by pancreatic lipase plus monoglyceride lipase; format: biochemical, Bacillus stearothermophilus H-165; conditions: for glycerol liberated from the α,β-diglyceride substrate: α-position hydrolyzed by pancreatic lipase, then monoglyceride lipase of this invention on the β-monoglyceride formed
Protocol: 2) Substrate specificity of the monoglyceride lipase upon use of α,β-diglyceride as a substrate:
i) The below-described α,β-diglycerides were separately employed as substrates. Their α-positions were hydrolyzed by using pancreatic lipase and the monoglyceride lipase of this invention was caused to act on β-monoglycerides thus formed. Thereafter, glycerol thus liberated was analyzed.

[3] = test system: monoglyceride lipase of this invention; test: Effects of surface active agents and metal ions on the monoglyceride lipase; format: biochemical, Bacillus stearothermophilus H-165; conditions: for Activity of lipase (%): not added = 100, 10 min
Protocol: as §1, with “activity.” for “activity. [formula] ΔA 550: Absorbance at the wavelength of 500 nm 2.95: Total volume of reaction mixture (ml)”

[4] = Confirmation by HPLC of fatty acid liberated from α-linoleoyl-β-oleoyl-diglyceride; format: biochemical; conditions: 37° C., 10 minutes, pH 8.3; monoglyceride lipase (0.5 U) added to the pancreatic lipase reaction solution
Protocol: 1) Confirmation of a fatty acid liberated from α-linoleoyl-β-oleoyl-diglyceride as a substrate, by high performance liquid chromatography (HPLC): i) Pancreas-derived lipase (50 μl) was added to 1.0 ml of a reaction solution having a composition of 0.5 mg of α-linoleoyl-β-oleoyl-diglyceride, 1.8 mg of a non-ionic surface active agent ("Triton X-100", trade name; product of Sigma Chemical Company), 3.8 mg of deoxycholic acid, 20 U of colipase, 0.15 mg of calcium chloride, and 200 μl of 0.1 M N-tri(hydroxymethyl) methyl-3-aminopropanesulfonic acid (TAPS)-NaOH (pH 8.3). After allowing them to react at 37° C. for 10 minutes, the reaction was terminated. A 15 μl aliquot of the reaction mixture was applied on a column and was then analyzed by high performance liquid chromatography under the following conditions.
Column: "Zorbox ODS" (trade name; 4.6 mm.phi.×25 cm)
Solvent: acetonitrile:H2 O (96:4)
Detection: ultraviolet absorption at 205 nm […]
ii) The monoglyceride lipase (0.5 U) was added to a reaction solution of the same composition as that employed above. A fatty acid liberated in substantially the same manner was detected by high performance liquid chromatography. As a result, linoleic acid and oleic acid were confirmed at the retention times of 23 minutes and 31 minutes respectively.

CCCCCCCC/C=C\CCCCCCCC(=O)OC(CO)CO [Monoolein (β-monoglyceride), Monoolein]
Activity of lipase (%) ([1]; Monolaurin = 100.0): 75.6%

CCCCC/C=C\C/C=C\CCCCCCCC(=O)OCC(CO)OC(=O)CCCCCCC/C=C\C/C=C\CCCCC (stereo not drawn) [α,β-dilinoleylglyceride]
glycerol liberated from the α,β-diglyceride substrate [2]: glycerol was detected

CCCCCCCC/C=C\CCCCCCCC(=O)OC(CO)COC(=O)CCCCCCCCCCCCCCC (stereo not drawn) [α-palmitoyl-β-oleoyldiglyceride]
glycerol liberated from the α,β-diglyceride substrate [2]: glycerol was detected

CCCCC/C=C\C/C=C\CCCCCCCC(=O)OCC(O)COC(=O)CCCCCCC/C=C\C/C=C\CCCCC [1,3-dilinolein]
glycerol hydrolyzed from the substrate in the presence of the monoglyceride lipase [1]: not detected

C[C@H](CCC(=O)O)[C@H]1CC[C@H]2[C@@H]3[C@H](O)C[C@@H]4C[C@H](O)CC[C@]4(C)[C@H]3C[C@H](O)[C@]12C [Cholic acid]
effect of addition on the activity of the monoglyceride lipase (in words) [3]: inhibition of the activity is observed in a high concentration range

CCCCCCCCCCCC(=O)OCC(O)CO (stereo not shown) [Monolaurin]
activity against the substrate (in words) [1]: maximum activity

Triton X-100
effect of addition on the activity of the monoglyceride lipase (in words) [3]: inhibition of the activity is observed in a high concentration range | Activity of lipase (%) ([3]; reagent concentration 0.1%): 81.7% | Activity of lipase (%) ([3]; reagent concentration 0.5%): 46.5%

CCCCCCCC/C=C\CCCCCCCC(=O)OCC(COC(=O)CCCCCCC/C=C\CCCCCCCC)OC(=O)CCCCCCC/C=C\CCCCCCCC [Triolein]
glycerol hydrolyzed from the substrate in the presence of the monoglyceride lipase [1]: not detected

CCCCC/C=C\C/C=C\CCCCCCCC(=O)OCC(CO)OC(=O)CCCCCCC/C=C\C/C=C\CCCCC (stereo not shown) [1,2-dilinolein]
glycerol hydrolyzed from the substrate in the presence of the monoglyceride lipase [1]: not detected

CCCCCCCC/C=C\CCCCCCCC(=O)OCC(CO)OC(=O)CCCCCCCCCCCCCCC (stereo not drawn) [α-oleyl-β-palmitoyldiglyceride]
glycerol liberated from the α,β-diglyceride substrate [2]: glycerol was detected

[Cl-].[Cl-].[Mg+2] [MgCl2]
effect of addition on the activity of the monoglyceride lipase (in words) [3]: not affected

[Ca+2].[Cl-].[Cl-] [CaCl2]
effect of addition on the activity of the monoglyceride lipase (in words) [3]: not affected

B1: pancreatic lipase: pancreas-derived lipase that hydrolyzes the α-position of α,β-diglyceride (protein, UniProt P00591 1-450, looked up)
Pancreatic triacylglycerol …: SEVCFPRLGCFSDDAPWAGIVQRPLKILPWSPKDVDTRFLLYTNQNQNNYQELVADPSTITNSNFRMDRKTRFIIHGFIDKGEEDWLSNICKNLFKVESVNCICVDWKGGSRTGYTQASQNIRIVGAEVAYFVEVLKSSLGYSPSNVHVIGHSLGSHAAGEAGRRTNGTIERITGLDPAEPCFQGTPELVRLDPSDAKFVDVIHTDAAPIIPNLGFGMSQTVGHLDFFPNGGKQMPGCQKNILSQIVDIDGIWEGTRDFVACNHLRSYKYYADSILNPDGFAGFPCDSYNVFTANKCFPCPSEGCPQMGHYADRFPGKTNGVSQVFYLNTGDASNFARWRYKVSVTLSGKKVTGHILVSLFGNEGNSRQYEIYKGTLQPDNTHSDEFDSDVEVGDLQKVKFIWYNNNVINPTLPRVGASKITVERNDGKVYDFCSQETVREEVLLTLNPC
position of α,β-diglyceride / monoglyceride acted on, from the fatty acid liberated [4]: act on the α-position of α,β-diglyceride | glycerol liberated from the α,β-diglyceride substrates ([2]; pancreatic lipase used singly): glycerol was not detected
